# Reference: US11149057B2, “Neuroactive steroids, compositions, and uses thereof” (Sage Therapeutics, Inc., priority 2014, dated 2021)
# What was measured:
# [1] = target: [35S]-TBPS binding, rat brain cortical membranes; test: Steroid inhibition of [35S]-TBPS binding; conditions: 3 nM [35S]-TBPS, in the presence of 5 μM GABA
# Experimental: [35S]-Butylbicyclophosphorothionate (TBPS) binding assays using rat brain cortical membranes in the presence of 5 μM GABA has been described (Gee et al, J. Pharmacol. Exp. Ther. 1987, 241, 346-353; Hawkinson et al, Mol. Pharmacol. 1994, 46, 977-985; Lewin, A. H et al., Mol. Pharmacol. 1989, 35, 189-194).
# Briefly, cortices are rapidly removed following decapitation of carbon dioxide-anesthetized Sprague-Dawley rats (200-250 g). The cortices are homogenized in 10 volumes of ice-cold 0.32 M sucrose using a glass/teflon homogenizer and centrifuged at 1500×g for 10 min at 4° C. The resultant supernatants are centrifuged at 10,000×g for 20 min at 4° C. to obtain the P2 pellets. The P2 pellets are resuspended in 200 mM NaCl/50 mM Na—K phosphate pH 7.4 buffer and centrifuged at 10,000×g for 10 min at 4° C. This washing procedure is repeated twice and the pellets are resuspended in 10 volumes of buffer. Aliquots (100 μL) of the membrane suspensions are incubated with 3 nM [^35S]-TBPS and 5 μL aliquots of test drug dissolved in dimethyl sulfoxide (DMSO) (final 0.5%) in the presence of 5 μM GABA. The incubation is brought to a final volume of 1.0 mL with buffer. Nonspecific binding is determined in the presence of 2 μM unlabeled TBPS and ranged from 15 to 25%. […] Filter bound radioactivity is measured by liquid scintillation spectrometry. […]
# α1β2γ2 GABAA receptors = target: T1, α1β2γ2 GABAA receptors (Homo sapiens, UniProt P14867+P47870); test: Patch clamp electrophysiology (QPatch) of recombinant α1β2γ2 GABAA receptors in LTK cells; assay type: cell-based; conditions: 10 μM test article, GABA EC20 = 2 μM, read-out: GABA (α1β2γ2) Qpatch in Ltk, % efficacy at 10 μM
# T1 construct: expressed in transfected cells
# T1 sequence (P14867 28-456): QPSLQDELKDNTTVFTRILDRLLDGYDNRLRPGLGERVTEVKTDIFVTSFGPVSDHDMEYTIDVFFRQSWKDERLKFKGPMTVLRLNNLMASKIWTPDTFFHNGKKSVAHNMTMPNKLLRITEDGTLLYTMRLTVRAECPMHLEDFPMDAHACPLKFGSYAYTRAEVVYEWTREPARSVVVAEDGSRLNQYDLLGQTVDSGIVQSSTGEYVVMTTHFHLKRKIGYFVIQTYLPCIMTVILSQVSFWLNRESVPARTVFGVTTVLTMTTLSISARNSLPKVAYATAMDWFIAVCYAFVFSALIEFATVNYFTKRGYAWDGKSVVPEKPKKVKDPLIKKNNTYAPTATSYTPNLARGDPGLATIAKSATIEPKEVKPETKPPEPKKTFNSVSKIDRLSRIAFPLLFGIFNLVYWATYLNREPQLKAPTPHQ
# T1 sequence (P47870 25-512 limits assumed): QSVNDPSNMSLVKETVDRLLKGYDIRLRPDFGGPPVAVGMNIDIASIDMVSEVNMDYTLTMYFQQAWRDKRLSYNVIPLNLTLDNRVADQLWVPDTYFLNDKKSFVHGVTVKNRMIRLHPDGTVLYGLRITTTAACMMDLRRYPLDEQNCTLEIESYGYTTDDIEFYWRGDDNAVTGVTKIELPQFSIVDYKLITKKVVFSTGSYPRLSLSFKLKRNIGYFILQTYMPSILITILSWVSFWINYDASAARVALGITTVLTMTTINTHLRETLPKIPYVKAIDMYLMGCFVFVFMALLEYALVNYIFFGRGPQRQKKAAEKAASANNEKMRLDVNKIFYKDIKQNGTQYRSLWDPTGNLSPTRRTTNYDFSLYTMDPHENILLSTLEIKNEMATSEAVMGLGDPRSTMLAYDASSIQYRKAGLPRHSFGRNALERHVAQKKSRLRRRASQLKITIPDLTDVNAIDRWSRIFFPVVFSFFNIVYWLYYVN
# T1 sequence (P18507 40-475 partner): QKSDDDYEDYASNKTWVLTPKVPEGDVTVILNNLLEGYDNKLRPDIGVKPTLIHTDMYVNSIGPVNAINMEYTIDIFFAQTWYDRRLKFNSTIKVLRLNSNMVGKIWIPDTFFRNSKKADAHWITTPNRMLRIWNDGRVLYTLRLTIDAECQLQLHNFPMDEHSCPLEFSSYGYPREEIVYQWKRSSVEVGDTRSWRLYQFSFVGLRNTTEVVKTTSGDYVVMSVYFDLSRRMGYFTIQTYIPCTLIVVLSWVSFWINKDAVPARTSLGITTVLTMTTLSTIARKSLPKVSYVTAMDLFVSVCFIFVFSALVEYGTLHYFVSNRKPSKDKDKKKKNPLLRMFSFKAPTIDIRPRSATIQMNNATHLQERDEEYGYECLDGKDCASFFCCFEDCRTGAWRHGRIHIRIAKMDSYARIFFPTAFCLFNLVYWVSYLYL
# α4β3δ GABAA receptors = target: T2, α4β3δ GABAA receptors (Homo sapiens, UniProt P28472+P48169); test: Manual patch clamp electrophysiology of recombinant α4β3δ GABAA receptors in CHO cells; assay type: cell-based; conditions: 10 μM test article, GABA EC20 = 2 μM, read-out: GABA (α4β3δ) Manual patch in CHO, % efficacy at 10 μM
# T2 construct: expressed in transfected cells; host or cells: CHO cells (transient transfection, Lipofectamine)
# T2 sequence (P48169 36-554): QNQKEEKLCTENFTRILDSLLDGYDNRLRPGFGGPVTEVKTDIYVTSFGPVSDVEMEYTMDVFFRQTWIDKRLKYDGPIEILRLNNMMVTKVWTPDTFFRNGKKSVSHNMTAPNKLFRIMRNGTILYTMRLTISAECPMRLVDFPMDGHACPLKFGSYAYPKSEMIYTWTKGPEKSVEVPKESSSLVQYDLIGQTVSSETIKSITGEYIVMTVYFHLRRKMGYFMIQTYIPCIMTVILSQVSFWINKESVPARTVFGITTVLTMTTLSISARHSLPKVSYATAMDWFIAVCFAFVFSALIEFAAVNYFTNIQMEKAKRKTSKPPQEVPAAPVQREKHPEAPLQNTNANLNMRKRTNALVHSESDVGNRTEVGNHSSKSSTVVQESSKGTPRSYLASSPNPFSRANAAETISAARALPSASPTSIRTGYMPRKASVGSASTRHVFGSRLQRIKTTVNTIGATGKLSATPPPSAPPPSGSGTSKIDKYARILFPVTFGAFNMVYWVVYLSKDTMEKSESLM
# T2 sequence (P28472 26-473): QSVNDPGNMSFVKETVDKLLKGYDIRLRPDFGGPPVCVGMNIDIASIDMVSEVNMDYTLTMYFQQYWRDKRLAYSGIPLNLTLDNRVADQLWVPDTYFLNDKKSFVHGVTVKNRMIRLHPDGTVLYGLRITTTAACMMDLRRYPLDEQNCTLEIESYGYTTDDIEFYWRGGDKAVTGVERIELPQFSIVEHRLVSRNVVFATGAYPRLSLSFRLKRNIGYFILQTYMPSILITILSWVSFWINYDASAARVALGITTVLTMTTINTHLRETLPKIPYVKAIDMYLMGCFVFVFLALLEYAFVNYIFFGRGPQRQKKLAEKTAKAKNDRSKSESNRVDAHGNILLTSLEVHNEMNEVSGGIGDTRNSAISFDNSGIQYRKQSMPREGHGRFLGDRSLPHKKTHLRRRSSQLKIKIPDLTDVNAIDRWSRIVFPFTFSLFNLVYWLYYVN
# T2 sequence (O14764 17-452 partner limits assumed): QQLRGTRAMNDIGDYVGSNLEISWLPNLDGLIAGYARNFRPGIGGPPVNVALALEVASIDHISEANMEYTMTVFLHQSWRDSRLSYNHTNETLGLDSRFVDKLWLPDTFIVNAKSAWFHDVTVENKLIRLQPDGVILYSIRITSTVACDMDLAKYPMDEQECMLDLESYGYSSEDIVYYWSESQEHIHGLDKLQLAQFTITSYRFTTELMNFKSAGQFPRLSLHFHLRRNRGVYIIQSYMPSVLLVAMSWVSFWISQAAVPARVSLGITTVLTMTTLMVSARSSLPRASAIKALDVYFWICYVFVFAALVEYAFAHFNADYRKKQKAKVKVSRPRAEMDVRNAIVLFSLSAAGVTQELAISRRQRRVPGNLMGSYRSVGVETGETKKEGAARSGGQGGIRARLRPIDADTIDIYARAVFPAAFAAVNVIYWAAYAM
smiles,measurement,setting,value
CC(=O)[C@H]1CC[C@H]2[C@@H]3CC[C@@H]4C[C@](C)(O)CC[C@]4(COC(C)C)[C@H]3CC[C@]12C [Compound 5],IC50,[1],< 10 nM
same,Emax at 10 µM,α1β2γ2 GABAA receptors,> 500%
same,Emax at 10 µM,α4β3δ GABAA receptors,> 500%
